molecular target: T1, CD73 (Homo sapiens, UniProt P21589); assay: Example A1: Biochemical Assay (CD73 inhibition, Malachite Green detection of AMP hydrolysis); conditions: Biochemical IC50, CD73 0.3208 nM, AMP 15 μM, Tris-HCl pH 7.4, Malachite Green, absorbance 620 nm
T1 sequence (P21589 27-549): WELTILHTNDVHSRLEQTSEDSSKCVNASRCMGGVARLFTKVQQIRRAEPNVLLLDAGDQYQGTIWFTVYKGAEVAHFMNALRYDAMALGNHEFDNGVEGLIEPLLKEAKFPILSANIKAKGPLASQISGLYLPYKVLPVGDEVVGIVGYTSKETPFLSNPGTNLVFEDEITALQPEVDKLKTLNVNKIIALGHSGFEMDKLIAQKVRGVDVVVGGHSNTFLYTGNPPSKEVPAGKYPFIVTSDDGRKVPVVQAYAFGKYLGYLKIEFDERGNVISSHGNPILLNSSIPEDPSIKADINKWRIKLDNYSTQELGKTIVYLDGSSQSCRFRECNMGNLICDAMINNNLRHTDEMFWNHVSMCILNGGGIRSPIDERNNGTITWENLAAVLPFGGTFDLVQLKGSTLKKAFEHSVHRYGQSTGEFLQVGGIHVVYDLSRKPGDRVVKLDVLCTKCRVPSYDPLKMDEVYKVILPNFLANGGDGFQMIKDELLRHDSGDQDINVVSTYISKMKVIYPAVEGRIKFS
Protocol: Example A1: Biochemical Assay
Assay Reaction Conditions
• Assay Volume: 70 μl • Reaction Volume: 50 μl • CD73: 0.3208 nM • AMP: 15 μM • Assay Buffer: 2 5 mM Tris-HCL, pH 7.4, 0.01% Brij-35, 0.01% BSA, 5 mM MgCl2 Assay Procedure:
Made dose titration of testing compounds in assay buffer, 10 points ½ log titrations in duplicates starting at 100 μM.
Added 25 μl of CD73 to each well for a final concentration of […].
Incubated at RT for 15 min.
Added 25 μl of AMP to each well for a final concentration of 15 μM.
Incubated at RT for 10 min.
Added 10 μl of Malachite Green Reagent A, incubate at RT for 10 min.
Added 10 μl of Malachite Green Reagent B, incubate at RT for 45 min.
Read the Absorbance on Envision plate reader using excitation filter: Cy5 […].
The ability of the compounds disclosed herein to inhibit CD73 activity was quantified and the respective IC50 values were determined. Table 1 provides the biochemical IC50 values of compounds disclosed herein.

| Compound | IC50 [nM] |
| --- | --- |
| O=P(O)(O)C[P@](=O)(OC[C@H]1O[C@@H](n2nnc3c(NCc4ccccc4Cl)nc(Cl)nc32)[C@H](O)[C@@H]1O)Oc1ccccc1 [Example 32, (((S)-(((2R,3S,4R,5R)-5-(5-chloro-7-((2-chlorobenzyl)amino)-3H-[1,2,3]triazolo[4,5-d]pyrimidin-3-yl)-3,4-dihydroxytetrahydrofuran-2-yl)methoxy)(phenoxy)phosphoryl)methyl) phosphonic acid] | > 1000 |
| O=P(O)(O)C[P@@](=O)(OC[C@H]1O[C@@H](n2nnc3c(NCc4ccccc4Cl)nc(Cl)nc32)[C@H](O)[C@@H]1O)Oc1ccccc1 [Example 33, (((R)-(((2R,3S,4R,5R)-5-(5-chloro-7-((2-chlorobenzyl)amino)-3H-[1,2,3]triazolo[4,5-d]pyrimidin-3-yl)-3,4-dihydroxytetrahydrofuran-2-yl)methoxy)(phenoxy)phosphoryl)methyl) phosphonic acid] | 100 to 1000 |

same assay, conditions: CD73 0.3208 nM, AMP 15 μM, Tris-HCl pH 7.4, Malachite Green, absorbance 620 nm; read-out: Biochemical IC50

| Compound | IC50 [nM] |
| --- | --- |
| CO[P@](=O)(CP(=O)(O)O)OC[C@H]1O[C@@H](n2nnc3c(NCc4ccccc4Cl)nc(Cl)nc32)[C@H](O)[C@@H]1O [Example 27, (((R)-(((2R,3S,4R,5R)-5-(5-Chloro-7-((2-chlorobenzyl)amino)-3H-[1,2,3]triazolo[4,5-d]pyrimidin-3-yl)-3,4-dihydroxytetrahydrofuran-2-yl)methoxy)(methoxy)phosphoryl)methyl)phosphonic acid] | 100 to 1000 |
| CO[P@@](=O)(CP(=O)(O)O)OC[C@H]1O[C@@H](n2nnc3c(NCc4ccccc4Cl)nc(Cl)nc32)[C@H](O)[C@@H]1O [Example 28, (((S)-(((2R,3S,4R,5R)-5-(5-chloro-7-((2-chlorobenzyl)amino)-3H-[1,2,3]triazolo[4,5-d]pyrimidin-3-yl)-3,4-dihydroxytetrahydrofuran-2-yl)methoxy)(methoxy)phosphoryl)methyl)phosphonic acid] | 100 to 1000 |
| O=P(O)(O)CP(=O)(OCC1CC1)OC[C@H]1O[C@@H](n2nnc3c(NCc4ccccc4Cl)nc(Cl)nc32)[C@H](O)[C@@H]1O (stereo partly drawn) [Example 30, (((((2R,3S,4R,5R)-5-(5-chloro-7-((2-chlorobenzyl)amino)-3H-[1,2,3]triazolo[4,5-d]pyrimidin-3-yl)-3,4-dihydroxytetrahydrofuran-2-yl)methoxy) (cyclopropylmethoxy)phosphoryl)methyl) phosphonic acid] | < 100 |
| COP(=O)(CP(=O)(O)O)OC[C@H]1OC(n2nnc3c(NC4CCc5ccccc54)nc(Cl)nc32)[C@H](O)[C@@H]1O (stereo partly drawn) [Example 34, (((((2R,3S,4R,5S)-5-(5-chloro-7-(((S)-2,3-dihydro-1H-inden-1-yl)amino)-3H-[1,2,3]triazolo[4,5-d]pyrimidin-3-yl)-3,4-dihydroxytetrahydrofuran-2-yl)methoxy)(methoxy)phosphoryl)methyl) phosphonic acid] | 100 to 1000 |
| COP(=O)(CP(=O)(O)O)OC[C@H]1O[C@@H](n2ncc3c(N(C)C4CCc5ccccc54)nc(Cl)nc32)[C@H](O)[C@@H]1O (stereo partly drawn) [Example 39, (((((2R,3S,4R,5R)-5-(6-Chloro-4-(((R)-2,3-dihydro-1H-inden-1-yl)(methyl)amino)-1H-pyrazolo[3,4-d]pyrimidin-1-yl)-3,4-dihydroxytetrahydrofuran-2-yl)methoxy)(methoxy)phosphoryl)methyl)phosphonic acid] | < 100 |
| C[C@H](Nc1nc(Cl)nc2c1cnn2[C@@H]1O[C@H](COP(=O)(O)CP(=O)(O)O)[C@@H](O)[C@H]1O)c1ccccc1Cl [Example 46, (((((2R,3S,4R,5R)-5-(6-chloro-4-(((S)-1-(2-chlorophenyl)ethyl)amino)-1H-pyrazolo[3,4-d]pyrimidin-1-yl)-3,4-dihydroxytetrahydrofuran-2-yl)methoxy)(hydroxy)phosphoryl)methyl) phosphonic acid] | > 1000 |

Other lines, results leading:

| IC50 [nM] | Compound |
| --- | --- |
| < 100 | O=P(O)(O)CP(=O)(OCc1ccccc1)OC[C@H]1O[C@@H](n2nnc3c(NCc4ccccc4Cl)nc(Cl)nc32)[C@H](O)[C@@H]1O (stereo partly drawn) [Example 29, (((benzyloxy)(((2R,3S,4R,5R)-5-(5-chloro-7-((2-chlorobenzyl)amino)-3H-[1,2,3]triazolo[4,5-d]pyrimidin-3-yl)-3,4-dihydroxytetrahydrofuran-2-yl)methoxy)phosphoryl)methyl)phosphonic acid] |
| < 100 | CN(c1nc(Cl)nc2c1cnn2[C@@H]1O[C@H](COP(=O)(O)CP(=O)(O)O)[C@@H](O)[C@H]1O)[C@@H]1CCc2ccccc21 [Example 38, (((((2R,3S,4R,5R)-5-(6-chloro-4-(((R)-2,3-dihydro-1H-inden-1-yl)(methyl)amino)-1H-pyrazolo[3,4-d]pyrimidin-1-yl)-3,4-dihydroxytetrahydrofuran-2-yl)methoxy)(hydroxy)phosphoryl)methyl)phosphonic acid] |
| < 100 | C[C@@]1(O)[C@@H](COP(=O)(O)CP(=O)(O)O)O[C@@H](n2ncc3c(NCc4ccccc4Cl)nc(Cl)nc32)[C@@H]1O [Example 40, (((((2R,3S,4R,5R)-5-(6-Chloro-4-((2-chlorobenzyl)amino)-1H-pyrazolo[3,4-d]pyrimidin-1-yl)-3,4-dihydroxy-3-methyltetrahydrofuran-2-yl)methoxy)(hydroxy)phosphoryl)methyl)phosphonic acid] |
| 100 to 1000 | O=P(O)(O)CP(=O)(O)OC[C@H]1O[C@@H](n2ncc3c(NCc4ccccc4Cl)nc(Cl)nc32)C[C@@H]1O [Example 41, (((((2R,3S,5R)-5-(6-chloro-4-((2-chlorobenzyl)amino)-1H-pyrazolo[3,4-d]pyrimidin-1-yl)-3-hydroxytetrahydrofuran-2-yl)methoxy)(hydroxy)phosphoryl)methyl) phosphonic acid] |
| < 100 | C[C@H](c1ccccc1)N(C)c1nc(Cl)nc2c1cnn2[C@@H]1O[C@H](COP(=O)(O)CP(=O)(O)O)[C@@H](O)[C@H]1O [Example 42, (((((2R,3S,4R,5R)-5-(6-chloro-4-(methyl((R)-1-phenylethyl)amino)-1H-pyrazolo[3,4-d]pyrimidin-1-yl)-3,4-dihydroxytetrahydrofuran-2-yl)methoxy)(hydroxy)phosphoryl)methyl) phosphonic acid] |
| < 100 | Cc1nn([C@@H]2O[C@H](COP(=O)(O)CP(=O)(O)O)[C@@H](O)[C@H]2O)c2nc(Cl)nc(N(C)Cc3ccccc3)c12 [Example 43, (((((2R,3S,4R,5R)-5-(4-(benzyl(methyl)amino)-6-chloro-3-methyl-1H-pyrazolo[3,4-d]pyrimidin-1-yl)-3,4-dihydroxytetrahydrofuran-2-yl)methoxy)(hydroxy)phosphoryl)methyl) phosphonic acid] |
| < 100 | Cc1nn([C@@H]2O[C@H](COP(=O)(O)CP(=O)(O)O)[C@@H](O)[C@H]2O)c2nc(Cl)nc(NCc3ccccc3Cl)c12 [Example 44, (((((2R,3S,4R,5R)-5-(6-chloro-4-((2-chlorobenzyl)amino)-3-methyl-1H-pyrazolo[3,4-d]pyrimidin-1-yl)-3,4-dihydroxytetrahydrofuran-2-yl)methoxy)(hydroxy)phosphoryl)methyl) phosphonic acid] |
| 100 to 1000 | C[C@@H](Nc1nc(Cl)nc2c1cnn2[C@@H]1O[C@H](COP(=O)(O)CP(=O)(O)O)[C@@H](O)[C@H]1O)c1ccccc1Cl [Example 45, (((((2R,3S,4R,5R)-5-(6-chloro-4-(((R)-1-(2-chlorophenyl)ethyl)amino)-1H-pyrazolo[3,4-d]pyrimidin-1-yl)-3,4-dihydroxytetrahydrofuran-2-yl)methoxy)(hydroxy)phosphoryl)methyl) phosphonic acid] |
